Data taken from patent US20120207737A1, “MEDICAL UTILITY OF GLYCAN-BINDING PROTEINS AND GLYCANS” (UNIVERSITY OF ZURICH, priority 2009, published 2012).
“Also recorded” adds a separate entry of the source.

What was measured:
[1] = target: T1, Coprinopsis cinerea galectin CGL2, wild type (Genbank AAF34732) (Coprinopsis cinerea, UniProt Q9P4R8); assay: Isothermal Titration Microcalorimetry (ITC), in vitro binding of C. cinerea galectin CGL2 to synthetic trisaccharide; conditions: 25° C.
T1 construct: amplifying the respective open reading frame from cDNA or available plasmids; made in house; host or cells: Escherichia coli BL21(DE3), vector pET24a
T1 sequence (Q9P4R8 whole entry): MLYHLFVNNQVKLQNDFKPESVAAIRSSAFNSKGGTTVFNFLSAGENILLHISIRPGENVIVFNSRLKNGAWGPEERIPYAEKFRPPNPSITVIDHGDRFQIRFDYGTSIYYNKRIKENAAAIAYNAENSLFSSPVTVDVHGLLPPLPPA
Procedure: The raw data is shown in the upper panel.
Bacterial cell pellets were resuspended in ice-cold phosphate-buffered saline (PBS) [30 mM Na-phosphate pH 7.3, 150 mM NaCl] containing 1 mM phenylmethylsulfonyl fluoride and ruptured using a French press. Cell debris was removed in two consecutive steps of centrifugation at 12000 g for 15 min and 27000 g for 30 min. The supernatant was incubated with lactosyl-sepharose at 4° C. for 1 h and CGL2 was finally eluted at room temperature in PBS containing 200 mM lactose. After size exclusion chromatography on Superose 6 10/300 GL (GE Healthcare) equilibrated in PBS, fractions containing the protein were pooled and concentrated using an Amicon Ultra-4 centrifugal filter device (Millipore) with a molecular weight cutoff of 10 kDa. Protein concentration was calculated by measuring the absorbance at 280 nm, assuming a relation of 1.25 mg mk^−1 to 1 unit absorbance at 280 nm for a path length of 1 cm. Conjugation of purified CGL2 to tetramethylrhodamine (TAMRA) (Molecular Probes) was performed as described in Walser, P. J. et al. (2005) Fungal Genet Biol 42, 293-305.
Experiments were performed with a VP-ITC isothermal titration calorimeter (Microcal, Mass., USA) at 25° C. using purified CGL2 (300 μM in TBS). Gal-β-1,4-Fuc-α-1,6-GlcNAc-β-O—C5H10-NH2 was dissolved in TBS at a concentration of 1.6 mM corrected based on purity estimate by ^1H-NMR (ca. 50-60%). The ligand was titrated into a cell containing the protein solution in 48 injections of 6 μl preceded by a single injection of 2 μl. All injections were performed at intervals of 3 min while stirring at 270 rpm. Experimental data were fitted to a theoretical titration curve using the MCS—ORIGIN software supplied by Microcal.

[2] = tested on: C. elegans; assay: C. elegans toxicity plate assay (development L1 to L4 on lectin-expressing E. coli); assay type: in vivo, Caenorhabditis elegans; conditions: lectin-expressing E. coli cells as food source
Procedure: (§1) FIG. 1 is a bar chart showing the toxicity of various fungal lectins towards C. elegans. C. elegans wildtype (N2) and pmk-1 mutant worms were analysed for development from L1 to L4 on lectin-expressing bacteria as described in the Experimental Procedures. The y-coordinate is the fraction of worms reaching L4 in the presence of bacteria expressing the lectins on the X-coordinate. Fungal lectins analyzed included C. cinerea galectins CGL1 (Genbank AAF34731) and CGL2 (Genbank AAF34732), galectin-related lectin CGL3 (Genbank ABD64675) and lectin RedA (CCL2) (Genbank ACD88750), Xerocomus chrysenteron lectin XCL (Genbank AAL73235) and its ortholog TAP1 from Sordaria macrospora (Genbank CAH03681), Aleuria aurantia lectin AAL (Genbank BAA00451) and Marasmius oreades agglutinin MOA (Genbank AAL47680).
Plasmids for bacterial expression of fungal lectins were constructed by amplifying the respective open reading frame from cDNA or available plasmids and ligating the resulting fragment into pET24a (Invitrogen) using introduced restriction sites. […]
Quantitative data on the effect of CGL2 on C. elegans development was acquired by placing 50 to 100 newly hatched L1 larvae of the indicated genotypes on the plates. After 72 h, the fraction of animals that reached L4 stage was determined.

[3] = tested on: H. contortus; assay: Haemonchus contortus toxicity assay (development L1 to L3, liquid, 96-well); assay type: in vivo; conditions: bacterivorous stages fed lectin-expressing E. coli
Procedure: as §1, with “FIG. 12” for “FIG. 1”, “towards H. contortus. The nematodes” for “towards C. elegans. C. elegans wildtype (N2) and pmk-1 mutant worms”, “to L3” for “to L4”, “reaching L3” for “reaching L4”, “cinerea galectin” for “cinerea galectins CGL1 (Genbank AAF34731) and”, “(Genbank ABD64675),” for “(Genbank ABD64675) and”
The toxicity towards the above-mentioned parasitic nematode was evaluated in a liquid assay using 96-well cell culture plates. H. contortus eggs were isolated from feces of an infected sheep and hatched on water-agar plates containing Kanamycin (50 μg/ml) and Amphotericin B (2.5 μg/ml). Approximately 30 L1 larvae were collected and transferred to each well, in a total volume of 150 μl 0.1× Earls solution. […] Plates were incubated at 28° C. in the dark, and percentage of larvae that developed to L3 were determined after 7 days.

[4] = tested on: C. elegans glycosylation mutants; assay: Lectin sensitivity of C. elegans glycosylation mutants (development L1 to L4); assay type: in vivo, Caenorhabditis elegans; conditions: testing of C. elegans glycosylation mutants, forward genetic screen
Procedure: FIG. 4 is a graph showing the CGL2-sensitivity of various C. elegans glycosylation mutants. C. elegans mutants of the genotypes indicated in the X-coordinate were analysed for development from L1 to L4 on CGL2-expressing E. coli as described in the experimental procedures below. See Table 1 below for glycosylation processes encoded by the various C. elegans genes.
FIG. 8 is a bar graph illustrating the RedA(CCL2)-sensitivity of various C. elegans glycosylation mutants. C. elegans mutants of the indicated genotypes were analysed for development from L1 to L4 on RedA-expressing E. coli as described in the below experimental procedures. Mutants not analyzed yet are indicated as n.d. See Table 1 below for glycosylation processes encoded by the various C. elegans genes.
FIG. 9 is a bar graph illustrating the MOA-sensitivity test of various C. elegans glycosylation mutants. C. elegans mutants of the indicated genotypes were analysed for development from L1 to L4 on MOA-expressing E. coli as described in experimental procedures below. Mutants not analyzed yet are indicated as n.d. […]
FIG. 10 is a bar graph illustrating the AAL-sensitivity of various C. elegans glycosylation mutants. C. elegans mutants of the indicated genotypes were analysed for development from L1 to L4 on AAL-expressing E. coli as described in Experimental Procedures. […]

[5] = TBS, model of one ligand-binding site per protein monomer

`CC(=O)N[C@H]1[C@H](OCCCCCN)O[C@H](CO[C@@H]2O[C@@H](C)[C@@H](O[C@@H]3O[C@H](CO)[C@H](O)[C@H](O)[C@H]3O)[C@@H](O)[C@@H]2O)[C@@H](O)[C@@H]1O` [Gal-β-1,4-Fuc-α-1,6-GlcNAc-β-O—C5H10—NH2] was tested, and the “entropy of binding (TΔS)” value ([1]; TBS) was -3.31 kcal/mol, the “enthalpy change (ΔH)” value [1, 5] was -8.85 ± 0.1 kcal/mol and the “number of binding sites (N)” value [1, 5] was 0.977±0.004. It also gave a Kd ([1]; purified CGL2 300 μM in TBS, ligand 1.6 mM, one ligand-binding site per protein monomer, read-out: dissociation constant (Kd)) of 86.9 µM.

B1: AAL: β-propeller lectin from the ascomycete Aleuria aurantia (Genbank BAA00451) (protein, UniProt P18891 2-313, looked up)
Fucose-specific lectin: PTEFLYTSKIAAISWAATGGRQQRVYFQDLNGKIREAQRGGDNPWTGGSSQNVIGEAKLFSPLAAVTWKSAQGIQIRVYCVNKDNILSEFVYDGSKWITGQLGSVGVKVGSNSKLAALQWGGSESAPPNIRVYYQKSNGSGSSIHEYVWSGKWTAGASFGSTVPGTGIGATAIGPGRLRIYYQATDNKIREHCWDSNSWYVGGFSASASAGVSIAAISWGSTPNIRVYWQKGREELYEAAYGGSWNTPGQIKDASRPTPSLPDTFIAANSSGNIDISVFFQASGVSLQQWQWISGKGWSIGAVVPTGTPAGW
With B1 the “toxicity towards C. elegans” value [2] was “toxic”, the “toxicity towards H. contortus” value [3] was “toxic” and the “glycan that mediates nematotoxicity / is recognized in C. elegans” value [4] was “binds terminal Fuc on a yet to be identified nematode glycoconjugate; also recorded: dependent on GDP-fucose biosynthesis”.
